Results reported in patent EP0139891A2, “Pharmaceutical compositions with antibiotic-immunostimulating activity” (B.T.B. INDUSTRIA CHIMICA S.p.A., priority 1983, dated 1985).
In brackets after ≈: the same amount, converted by molar mass. Where a name gives a salt, the structure may show the parent alone.

Columns and labels:
[1] = tested on: pneumococ bacteria; assay: Antibacterial in vivo activity in infected rats; parameters: species or system Sprague-Dawley rats; conditions: rats infected with LD100 of pneumococ bacteria; orally every twelve hours 25 mg/kg as erythromycin base; 8 days observation
Protocol: 60 Sprague-Dawley rats of both sexes (3 lots of 20 animals each) were infected with an LD100 of pneumococ bacteria. Said LD100 was determined in 10^6C.F.U. and was given to the rats through tracheal cannula. The death of the animals occurred at the 3rd-4th day. The observation period lasted 8 days.
The obtained results are reported in the fol lowing Table I and are expressed as per cent mortalities over the controls.
Both the dead and the survived animals underwent a hystological examination of the main organs, namely lungs, liver, kidneys, heart and brain.

[2] = tested on: S. aureus; assay: Antibacterial in vitro activity (M.I.C.); type: cell-based; conditions: micrograms of substance per ml of bacterial suspension
Protocol: (§1) The M.I.C.s were determined against three pathogenic bacterial strains, and are expressed as micrograms of substance per ml of bacterial suspension […].

[3] = tested on: S. pyogenes; assay: Antibacterial in vitro activity (M.I.C.); type: cell-based; conditions: micrograms of substance per ml of bacterial suspension
Protocol: as §1

[4] = tested on: H. influenzae; assay: Antibacterial in vitro activity (M.I.C.); type: cell-based; conditions: micrograms of substance per ml of bacterial suspension
Protocol: as §1

[5] = Acute toxicity after oral administration; conditions: in vivo, rat
[6] = tested on: St Albus ATCC 12228; assay: Phagocytosis test on phagocytes of treated patients; type: in vivo; conditions: patients with chronical bronchitis, erythromycin 1 gram and/or inosine 182 mg
Protocol: (§2) of F.F.001 was investigated in a clinical research on patients affected by chronic bronchial infection. The immunostimulating action was determined through the monitorage of the phagocytary and NK cells activity.
2 Ml of a phagocytes suspension (10^6 phagocy- tes/ml) was mixed up in a sterile test tube with 2 ml of St Albus ATCC 12228 (10^6 microorganisms/ ml) suspended in Gelatine "Hanks-solution" with 10% AB serum and 0.4 ml of AB serum.
The mixture was then incubated at 37 degrees C under continuous stirring. 2 Ml of St Albus ATCC 12228 suspended in gelatine "Hanks-solution" with 10% of AB serum (10^6 microorganisms/ml) were mixed up in another sterile test tube with 2.04 ml of Gelatine "Hanks-solution" and incubated under the same conditions described above.
At regular time intervals (0-30 min.-60 min.-90 min.) aliquots of the suspension corresponding to 0.5 ml were added to 1.5 Ml of Gelatine "Hanks-so lution" previously cooled to 4 degrees in order to stop the phagocytosis process.
The samples were then centrifuged for 4 min. at 110 r.p.m. in order to obtain the complete sedimen tation of the leucocytes, while the upper phase consisted of a suspension containing the bacteria (supernatant).
The supernatant liquid was then diluted with a
sterile saline solution (Bacto-haemogglutination Soerensen buffer) at a 1:10 ratio, in order to be sure that at least the last dilution contained a number of living bacteria ranging between 100 and 1000/ml.
Aliquots of 0.1 ml of bacterial suspension were then taken from the […] dilutions and both of them were pipetted on a plate containing Diagnostic Sensitive Test Agar (Oxoid) and immedia tely distributed on the whole surface with a sterile spatula.
The plates were incubated at 37 degrees C for 24 h and the number of colonies was then determined with a colony counter.
The same procedure was followed after having withdrawn aliquots of 0.5 ml of bacterial suspension from the test tube.
Phagocytosis, as a function of time, was determined in vitro and can be expressed as the reduction percent of the number of living bacteria deter mined at the beginning of the experiment (No). [formula]
F(t) is the phagocytosis index after t min., while Nt is the number of living bacteria after t min.
(§3) In the groups 1), 3), 4) and 5) the dose of erythromycin was always 1 gram; in the groups 2), 3), 4) and 5) the corresponding dose of inosine was 182 mg.

[7] = tested on: K562; assay: Natural killer activity test on lymphocytes of treated patients; type: in vivo; conditions: same patients and doses, percentage of aspecific lysis of K562
Protocol: as §2
This test consists in the determination of the percentage of aspecific lysis of a human tumoral target, K562, mediated by circulating lymphocytes.
The lymphocytes were isolated by centrifuging heparinized blood at a 1:1 dilution with physiologic solution or with a solution of "Hanks" salts of "Ficol".
After 30 min. of centrifugation at 1000 r.p.m. a band of stratified leucocytes was obtained over the "Ficol" level.
At the same time the K562 were labelled with ^51Cr by adding the radioisotope solution to a suspension containing […] in 0.5 ml of colture medium.
After 45 min. of incubation at 37 degrees C the cells were washed three times with a solution of "Hanks" salts.
The labelled cells were then incubated with leucocytes at 37 degrees C at various ratios for 4 h, after which the percentage of […] release was determined in the supernatant and assumed to be directly proportional to the K562 cell lysis mediated by leucocytes.
as §3

[8] = 0 hours (moment of administration), reduction percent of living bacteria
[9] = 0 hours (moment of administration)

| Molecule | Mortality [1] | MIC ([2]; Staphylococcus aureus, read-out: minimum inhibiting concentration (M.I.C.)) | MIC ([3]; Streptococcus pyogenes, read-out: minimum inhibiting concentration (M.I.C.)) | MIC ([4]; Haemophilus influenzae, read-out: minimum inhibiting concentration (M.I.C.)) | LD50 [5] | phagocytosis [6, 8] | phagocytosis ([6]; 2 hours after administration) | phagocytosis ([6]; 4 hours after administration) | phagocytosis ([6]; 6 hours after administration) | phagocytosis ([6]; 8 hours after administration) | phagocytosis ([6]; 24 hours after administration) | NK-test [7, 9] | NK-test ([7]; 2 hours after administration) | NK-test ([7]; 4 hours after administration) | NK-test ([7]; 6 hours after administration) | NK-test ([7]; 8 hours after administration) | NK-test ([7]; 24 hours after administration) | minimum inhibiting concentration (M.I.C.) [2] | minimum inhibiting concentration (M.I.C.) [3] | minimum inhibiting concentration (M.I.C.) [4] |
| --- | --- | --- | --- | --- | --- | --- | --- | --- | --- | --- | --- | --- | --- | --- | --- | --- | --- | --- | --- | --- |
| CCC(=O)O[C@H]1[C@H](O[C@@H]2[C@@H](C)[C@H](O[C@H]3C[C@@](C)(OC)[C@@H](O)[C@H](C)O3)[C@@H](C)C(=O)O[C@H](CC)[C@@](C)(O)[C@H](O)[C@@H](C)C(=O)[C@H](C)C[C@@]2(C)O)O[C@H](C)C[C@@H]1N(C)C [Er. prop., erythromycin propionate] | 5% | 0.35 µg/mL (≈ 0.443 µM) | 0.04 µg/mL (≈ 0.0506 µM) | 0.31 µg/mL (≈ 0.392 µM) | – | – | – | – | – | – | – | – | – | – | – | – | – | – | – | – |
| CC[C@H]1OC(=O)[C@H](C)[C@@H](O[C@H]2C[C@@](C)(OC)[C@@H](O)[C@H](C)O2)[C@H](C)[C@@H](O[C@@H]2O[C@H](C)C[C@H](N(C)C)[C@H]2O)[C@](C)(O)C[C@@H](C)C(=O)[C@H](C)[C@@H](O)[C@]1(C)O [Erythromycin, erythromycin] | 5% | – | – | – | > 6000 mg/kg | 8-24 | 8-24 | 8-24 | 8-24 | 31-60 | 8-24 | 7.4-23.0 | 7.4-23.0 | 7.4-23.0 | 7.4-23.0 | 45.3-67.8 | 7.4-23.0 | – | – | – |
| CCOC(=O)CCC(=O)O[C@H]1[C@H](O[C@@H]2[C@@H](C)[C@H](O[C@H]3C[C@@](C)(OC)[C@@H](O)[C@H](C)O3)[C@@H](C)C(=O)O[C@H](CC)[C@@](C)(O)[C@H](O)[C@@H](C)C(=O)[C@H](C)C[C@@]2(C)O)O[C@H](C)C[C@@H]1N(C)C [F.F.002, salt of erythromycin ethylsuccinate with inosine-5-phosphoric acid in the molar ratio 2:1] | – | – | – | – | – | 5-20 | 16-62 | 16-62 | 16-62 | 34-82 | 5-20 | 5.2-17.8 | 44.9-68.2 | 46.1-69.8 | 50.1-71.8 | 52.9-76.1 | 5.2-17.8 | – | – | – |
| OC[C@H]1O[C@@H](n2cnc3c(O)ncnc32)[C@H](O)[C@@H]1O [Inosine, inosine] | – | – | – | – | – | 5-19 | 10-50 | 5-19 | 5-19 | 5-19 | 5-19 | 4.5-19.0 | 10.0-56.5 | 4.5-19.0 | 4.5-19.0 | 4.5-19.0 | 4.5-19.0 | – | – | – |
| salt of erythromycin propionate with inosine-5-phosphoric acid in the molar ratio 2:1 [F.F.001] | 0% | – | – | – | – | 5-20 | 16-62 | 16-62 | 16-62 | 34-82 | 5-20 | 4.9-21.7 | 45.8-68 | 47.3-70.1 | 48.0-71.1 | 50.2-74.2 | 4.9-21.7 | 0.31 ℓ/ml | 0.036 ℓ/ml | 0.31 ℓ/ml |
